The source of these data is patent US9718790B2, “Triazine derivative and pharmaceutical composition having an analgesic activity comprising the same” (SHIONOGI & CO., LTD., priority 2010, dated 2017).

The target in the first assay is human P2X3 receptor (Homo sapiens (Human), UniProt P56373). Description: Evaluation of human P2X3 receptor inhibitory activity (Fluo-3 calcium fluorescence, FDSS 3000, ATP stimulation).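 Further: stimulus was 50 nM ATP with fluorescence followed for 3 min, and the response per well was peak post-ATP fluorescence divided by the reading at measurement start.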 The assay is classed as cell-based. The settings on record: C6BU-1 cells stably expressing human P2X3 receptor.
human P2X3 receptor, sequence (P56373 whole entry): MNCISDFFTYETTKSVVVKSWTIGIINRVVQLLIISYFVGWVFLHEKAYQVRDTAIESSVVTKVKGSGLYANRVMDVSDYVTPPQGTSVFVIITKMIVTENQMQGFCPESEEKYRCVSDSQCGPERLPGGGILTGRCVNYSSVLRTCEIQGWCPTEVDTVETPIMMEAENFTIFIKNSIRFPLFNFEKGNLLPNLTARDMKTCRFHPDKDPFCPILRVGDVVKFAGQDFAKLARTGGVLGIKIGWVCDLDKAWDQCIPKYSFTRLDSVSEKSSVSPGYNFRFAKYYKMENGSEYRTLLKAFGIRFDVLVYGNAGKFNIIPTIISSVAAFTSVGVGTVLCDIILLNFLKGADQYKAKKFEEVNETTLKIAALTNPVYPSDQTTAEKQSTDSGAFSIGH
Consider `O=c1[nH]/c(=N\c2ccc3nc(C(F)(F)F)sc3c2)n(Cc2ccc(Cl)cc2)c(=O)n1C[C@H](O)CO` [Compound I-2168], for which the IC50 – broadly, the point on the concentration scale where inhibition reaches its midpoint – was 57 nM.

`Cc1cc(/N=c2\[nH]c(=O)n(Cc3cccc(C(=O)O)n3)c(=O)n2Cc2ccc(Cl)cc2)ccc1OC(C)C` [Compound I-0801]: the IC50 worked out at 10 nM.

Regarding `CCOC(=O)OC(=O)c1ccc(Oc2ccc(/N=c3\[nH]c(=O)n(CC)c(=O)n3Cc3ccc(C)cc3)cc2)cc1` [Compound I-2068], the IC50 is 16 nM.

As for `NC(=O)CCn1c(=O)[nH]/c(=N\c2ccc(OC3CCC3)cc2)n(Cc2ccc(Cl)cc2)c1=O` [Compound I-1915], the 50% inhibitory concentration (IC50) was 23 nM.

Turning to `Cc1cc(/N=c2\[nH]c(=O)n(Cc3ccc(C(=O)O)o3)c(=O)n2Cc2ccc(Cl)cc2)ccc1OC(C)C` [Compound I-0710], the half-maximal inhibitory concentration (IC50) came to 19 nM.

Consider `C[C@@H](Oc1ccc(/N=c2\[nH]c(=O)n(CCC(N)=O)c(=O)n2Cc2ccc(Cl)cc2)cc1)C(F)(F)F` [Compound I-1956], for which the IC50 was 34 nM.

Take `Cc1ccc(Cn2c(=O)n(C[C@H](C)C(=O)O)c(=O)[nH]/c2=N\c2ccc(CC(C)C)c(F)c2)cc1` [Compound I-1256]: the IC50 is 18 nM.

With `Cc1nc2ccc(/N=c3\[nH]c(=O)n(CCCC(=O)O)c(=O)n3Cc3ccc(Cl)cc3)cc2s1` [Compound I-2143], the 50% inhibitory concentration (IC50) is 23 nM.

As to `CC(C)Oc1ccc(/N=c2\[nH]c(=O)n(C(C)(C)C(=O)NC(CO)CO)c(=O)n2Cc2ccc(Cl)cc2)cc1Cl` [Compound I-0687], the half-maximal inhibitory concentration (IC50) amounted to 12 nM.

As to `COC(=O)[C@@H](C)Cn1c(=O)[nH]/c(=N\c2ccc3oc(C)cc3c2)n(Cc2ccc(C)cc2)c1=O` [Compound I-0671], the IC50 was determined as 15 nM.

For `CC(C)Cc1ccc(/N=c2\[nH]c(=O)n([C@@H](C)[C@@H](C)C(=O)O)c(=O)n2Cc2ccc(Cl)cc2)cc1Cl` [Compound I-1442], the half-maximal inhibitory concentration (IC50) stood at 8 nM.

For `CC(C)Oc1ccc(/N=c2\[nH]c(=O)n(CCCN/C(=N\C#N)Oc3ccccc3)c(=O)n2Cc2ccc(Cl)cc2)cc1F` [Compound I-0613], the concentration for half-maximal inhibition (IC50) was 11 nM.

`CCn1c(=O)[nH]/c(=N\c2ccc(Oc3ccc(C(=O)O)nc3)cc2)n(Cc2ccc(Cl)cc2)c1=O` [Compound I-2115]: the 50% inhibitory concentration (IC50) stood at 18 nM.

Consider `Cc1cc(/N=c2\[nH]c(=O)n([C@H]3C[C@@H](C(=O)O)N(C(=O)OC(C)(C)C)C3)c(=O)n2Cc2ccc(Cl)cc2)ccc1OC(C)C` [Compound I-0708], for which the concentration for half-maximal inhibition (IC50) worked out at 966 nM.

As to `COC(=O)NCCn1c(=O)[nH]/c(=N\c2ccc(OC(C)C)c(F)c2)n(Cc2ccc(Cl)cc2)c1=O` [Compound I-0607], the concentration for half-maximal inhibition (IC50) amounted to 12 nM.

As for `COc1cc(/N=c2\[nH]c(=O)n(CCOC3CCCCO3)c(=O)n2Cc2ccc(Cl)cc2)ccc1OC(C)C` (stereo not drawn) [Compound I-2005], the IC50 is 3 nM.

As for `Cc1ccc(Cn2c(=O)n(CCC(=O)O)c(=O)[nH]/c2=N\c2cc(C(F)(F)F)ccc2C)cc1` [Compound I-2082], the IC50 was found to be 833 nM.

`COc1cc(/N=c2\[nH]c(=O)n(CCCO)c(=O)n2Cc2ccc(Cl)cc2)ccc1OC(C)C` [Compound I-2002]: the 50% inhibitory concentration (IC50) was determined as 8 nM.

Consider `COC(=O)[C@@H](C)Cn1c(=O)[nH]/c(=N\c2ccc(OC(C)C)c(Cl)c2)n(Cc2ccccc2)c1=O` [Compound I-0763], for which the IC50 is 80 nM.

Consider `COC(=O)C(C)(C)Cn1c(=O)[nH]/c(=N\c2ccc3c(c2)cc(C)n3C)n(Cc2ccc(Cl)cc2)c1=O` [Compound I-0597], for which the IC50 is 507 nM.

In the case of `CCOC(=O)CCCn1c(=O)[nH]/c(=N\c2ccc3oc(C)cc3c2)n(Cc2ccc(C)cc2)c1=O` [Compound I-0574], the IC50 was 15 nM.

For the compound `Cc1ccc(Cn2c(=O)n([C@@H](C)[C@@H](C)C(=O)O)c(=O)[nH]/c2=N\c2cccc(C(F)(F)F)c2)cc1` [Compound I-1335], the concentration for half-maximal inhibition (IC50) was 30 nM.

Take `Cc1cc(/N=c2\[nH]c(=O)n(C[C@H]3COC(C)(C)O3)c(=O)n2Cc2ccc(Cl)cc2)ccc1OC(C)C` [Compound I-0709]: the half-inhibitory concentration (IC50) is 7 nM.

For the compound `C[C@@H](Cn1c(=O)[nH]/c(=N\c2ccc3c(c2)CCO3)n(Cc2ccc(Cl)cc2)c1=O)C(=O)O` [Compound I-0773], the IC50 is 790 nM.

`CCOC(=O)CCn1c(=O)[nH]/c(=N\c2ccc(Oc3ccncc3)cc2)n(Cc2ccc(C)cc2)c1=O` [Compound I-1230]: the IC50 stood at 4 nM.

For the compound `O=C(O)CCn1c(=O)[nH]/c(=N\c2ccc(OC3CCC3)c(Cl)c2)n(Cc2ccc(Cl)cc2)c1=O` [Compound I-1333], the IC50 turned out to be 52 nM.

Still in this assay, the particulars now being: C6BU-1 cells stably expressing human P2X3 receptor, Fluo-3 fluorescence, FDSS 3000.
Consider `CCc1nc2ccc(/N=c3\[nH]c(=O)n(CC(C)(C)C(=O)O)c(=O)n3Cc3ccc(C)cc3)cc2s1` [Compound I-1580], for which the IC50 was found to be 6 nM.

As for `C[C@@H](Cn1c(=O)[nH]/c(=N\c2ccc3c(c2)CCCO3)n(Cc2ccc(Cl)cc2)c1=O)C(=O)O` [Compound I-1103], the IC50 amounted to 423 nM.

`COC(=O)[C@@H](C)Cn1c(=O)[nH]/c(=N\c2ccc(N3CCCCC3)cc2)n(Cc2ccc(C)cc2)c1=O` [Compound I-1085]: the IC50 amounted to 34 nM.

As to `CC[C@@H](C)Oc1ccc(/N=c2\[nH]c(=O)n([C@H](C)CC(=O)OC)c(=O)n2Cc2ccc(C)cc2)cc1` [Compound I-0939], the IC50 was 34 nM.

For the compound `CCOC(=O)CCn1c(=O)[nH]/c(=N\c2ccc(OCC3CC3)cc2)n(Cc2ccc(Cl)cc2)c1=O` [Compound I-1147], the half-maximal inhibitory concentration (IC50) was 10 nM.

With `Cc1ccc(Cn2c(=O)n(CC3(C(=O)O)CC3)c(=O)[nH]/c2=N\c2ccc(OCC3CC3)cc2)cc1` [Compound I-0915], the IC50 amounted to 75 nM.

As for `CCc1oc2ccc(/N=c3\[nH]c(=O)n(CC(N)=O)c(=O)n3Cc3ccc(Cl)cc3)cc2c1C` [Compound I-1656], the IC50 is 7 nM.

For `CCc1nc2ccc(/N=c3\[nH]c(=O)n(CCCC(=O)O)c(=O)n3Cc3ccc(C)cc3)cc2s1` [Compound I-1631], the IC50 was determined as 8 nM.

As to `O=c1[nH]/c(=N\c2ccc(Oc3ccnc(O)c3)cc2)n(Cc2ccc(Cl)cc2)c(=O)n1CCCO` [Compound I-1713], the IC50 was 3 nM.

As for `CCC[C@H](C)Oc1ccc(/N=c2\[nH]c(=O)n(CCC(=O)O)c(=O)n2Cc2ccc(C)cc2)cc1` [Compound I-1067], the IC50 stood at 93 nM.

`CC1(C)OCC(Cn2c(=O)nc(Cc3cccc(C(F)(F)F)c3)n(Cc3ccc(Cl)cc3)c2=O)CO1` [Compound I-1642]: the half-maximal inhibitory concentration (IC50) was found to be 551 nM.

Take `Cc1ccc(Cn2c(=O)n(CCC(=O)O)c(=O)[nH]/c2=N\c2ccc(OCC(C)(C)C)cc2)cc1` [Compound I-1071]: the IC50 was determined as 998 nM.

As to `CCOC(=O)CCn1c(=O)[nH]/c(=N\c2ccc(O[C@H](C)CC)cc2)n(Cc2ccc(C)cc2)c1=O` [Compound I-1018], the IC50 came out at 8 nM.

As to `CCc1nc2ccc(/N=c3\[nH]c(=O)n(CCNC(C)=O)c(=O)n3Cc3ccc(Cl)cc3)cc2s1` [Compound I-1612], the concentration for half-maximal inhibition (IC50) amounted to 5 nM.

Turning to `CCOC(=O)CCn1c(=O)[nH]/c(=N\c2ccc(OCC3CC3)c(Cl)c2)n(Cc2ccc(C)cc2)c1=O` [Compound I-0957], the half-maximal inhibitory concentration (IC50) was 25 nM.

With `COc1ccc(Oc2ccc(/N=c3\[nH]c(=O)n(CC(=O)NCCO)c(=O)n3Cc3ccc(Cl)cc3)cc2)cn1` [Compound I-1858], the half-maximal inhibitory concentration (IC50) was 5 nM.

With `CCOc1ccc(Cc2nc(=O)n(C[C@H](C)C(=O)OC)c(=O)n2Cc2ccc(Cl)cc2)cc1` [Compound I-1864], the IC50 was determined as 186 nM.

The assay is the same for the next values; noted with them: human P2X3 receptor, Test Example 1.
`CCn1c(=O)[nH]/c(=N\c2ccc(Oc3ccc(C(=O)O)nc3)cc2)n(C[C@H]2CC[C@H](C)CC2)c1=O` [Compound I-2351]: the 50% inhibitory concentration (IC50) came to 9 nM.

As to `Cc1nc(-c2ccc(/N=c3\[nH]c(=O)n(C[C@H](C)C(=O)O)c(=O)n3Cc3ccc(Cl)cc3)cc2)no1` [Compound I-1530], the 50% inhibitory concentration (IC50) stood at 93 nM.

For the compound `CNC(=O)[C@@H](C)n1c(=O)[nH]/c(=N\c2ccc(Oc3ccon3)cc2)n(Cc2ccc(Cl)cc2)c1=O` [Compound I-2534], the concentration for half-maximal inhibition (IC50) was found to be 105 nM.

On to `CCn1c(=O)[nH]/c(=N\c2ccc(Oc3ccsn3)cc2)n(Cc2ccc(Cl)cc2)c1=O` [Compound I-2286], for which the half-maximal inhibitory concentration (IC50) stood at 5 nM.

Consider `Cn1c(=O)[nH]/c(=N\c2ccc(Oc3cc(C(N)=O)n[nH]3)cc2)n(Cc2ccc(Cl)cc2)c1=O` [Compound I-2416], for which the half-inhibitory concentration (IC50) is 54 nM.

As for `Cc1cc(/N=c2\[nH]c(=O)n(C[C@H](C)C(=O)O)c(=O)n2Cc2ccc(Cl)cc2)ccc1OCC(C)C` [Compound I-0835], the IC50 turned out to be 78 nM.

As for `CC[C@@H](C)Oc1ccc(/N=c2\[nH]c(=O)n(C[C@H](C)C(=O)O)c(=O)n2Cc2ccc(C)cc2)cc1` [Compound I-0854], the IC50 was found to be 32 nM.

Turning to `CC[C@@H](C)Oc1ccc(/N=c2\[nH]c(=O)n(C[C@H](C)C(=O)O)c(=O)n2Cc2ccc(C)cc2)cc1C` [Compound I-0853], the half-maximal inhibitory concentration (IC50) was 13 nM.

For the compound `Cn1c(=O)[nH]/c(=N\c2ccc(Oc3cnc(C(=O)O)cn3)cc2)n(Cc2ccc(Cl)cc2)c1=O` [Compound I-2386], the IC50 was 13 nM.

Take `CCn1c(=O)[nH]/c(=N\c2ccc(Oc3cccc(C(=O)O)n3)c(F)c2)n(Cc2ccc(Cl)cc2)c1=O` [Compound I-2498]: the concentration for half-maximal inhibition (IC50) was 3 nM.

Take `Cc1nnc(Oc2ccc(/N=c3\[nH]c(=O)n(C[C@H](O)CO)c(=O)n3Cc3ccc(Cl)cc3)cc2)s1` [Compound I-2511]: the IC50 came out at 235 nM.

Take `C=C(C)c1ccc(/N=c2\[nH]c(=O)n(C[C@H](C)C(=O)O)c(=O)n2Cc2ccc(C)cc2)cc1Cl` [Compound I-1492]: the IC50 was 461 nM.

`CCOc1c(Cl)cc(/N=c2\[nH]c(=O)n(C[C@H](C)C(=O)OC)c(=O)n2Cc2ccc(C)cc2)cc1Cl` [Compound I-1499]: the IC50 came to 19 nM.

Regarding `O=c1[nH]/c(=N\c2ccc(Oc3noc(C4CC4)n3)cc2)n(Cc2ccc(Cl)cc2)c(=O)n1CC(CO)CO` [Compound I-2595], the half-inhibitory concentration (IC50) worked out at 27 nM.

Regarding `O=c1[nH]/c(=N\c2ccc(Oc3nccs3)cc2)n(Cc2ccc(Cl)cc2)c(=O)n1CCO` [Compound I-2505], the IC50 came to 17 nM.

Consider `CCn1c(=O)[nH]/c(=N\c2ccc(Oc3cnccn3)cc2)n(Cc2ccc(Cl)cc2)c1=O` [Compound I-2642], for which the IC50 was determined as 11 nM.

For `CC(=O)Nc1cc(Oc2ccc(/N=c3\[nH]c(=O)[nH]c(=O)n3Cc3ccc(Cl)cc3)cc2)ccn1` [Compound I-2430], the IC50 was found to be 48 nM.
